# Experiment: evaluation of moisturizing power with oil water content measuring apparatus
# Assay type: in vivo
# Conditions: cosmetic solution diluted twice by water, applied to forearm flexor side; compared with propylene glycol and 1,3-butylene glycol
# From the text: For the evaluation of moisturizing power, an oil water content measuring apparatus (WSK-P500U manufactured by Wave Cyber) was used. This measuring apparatus indicates the water content of the part of the skin to be measured by a relative value of 0 to 99. The part to be measured was the forearm flexor side.
compound,measurement,value
OCC(O)CO [glycerin],moisturizing power,highest moisturizing power
